By Kd is commonly meant the equilibrium constant for the complex coming apart. Low values mean tighter binding, high ones weaker binding. Usually IC50 stands for the concentration at which inhibition is half-maximal. A high value points to a need for much substance.

For one assay, the target named is PLK1 (human) (UniProt P53350). In words: KINOMEscan competition binding. Conditions: compound 10.0 µM.
Another assay has as its target MYLK (human) (UniProt Q15746). In words: KINOMEscan competition binding. The conditions noted are these: compound 10.0 µM.
For a further assay, the target named is RPS6KA4 KD2 (human) (UniProt O75676). In words: KINOMEscan competition binding. Conditions: compound 10.0 µM.
Chain of RPS6KA4 KD2 (human) (O75676 whole entry, looked up): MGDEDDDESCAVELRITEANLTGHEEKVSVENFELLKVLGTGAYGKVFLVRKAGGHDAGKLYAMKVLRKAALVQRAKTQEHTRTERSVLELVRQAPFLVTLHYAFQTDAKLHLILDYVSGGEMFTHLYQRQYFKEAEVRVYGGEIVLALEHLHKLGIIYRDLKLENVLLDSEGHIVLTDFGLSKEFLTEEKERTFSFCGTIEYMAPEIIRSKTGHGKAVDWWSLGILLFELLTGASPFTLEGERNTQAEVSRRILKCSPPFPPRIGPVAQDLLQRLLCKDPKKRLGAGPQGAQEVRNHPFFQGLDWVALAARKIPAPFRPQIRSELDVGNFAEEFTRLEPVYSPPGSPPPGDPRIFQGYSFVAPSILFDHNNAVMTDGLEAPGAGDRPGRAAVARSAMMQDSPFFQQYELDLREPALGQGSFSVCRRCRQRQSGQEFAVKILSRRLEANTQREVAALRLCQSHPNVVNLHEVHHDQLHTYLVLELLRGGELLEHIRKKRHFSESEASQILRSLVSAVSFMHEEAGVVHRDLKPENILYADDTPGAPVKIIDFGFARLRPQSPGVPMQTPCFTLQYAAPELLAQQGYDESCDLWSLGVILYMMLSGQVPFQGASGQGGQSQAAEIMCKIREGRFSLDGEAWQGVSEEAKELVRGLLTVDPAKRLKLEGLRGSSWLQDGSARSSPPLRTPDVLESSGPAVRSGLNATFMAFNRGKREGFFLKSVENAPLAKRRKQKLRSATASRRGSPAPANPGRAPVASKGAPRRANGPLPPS
Another assay addresses RAF1 (human) (UniProt P04049). Briefly: KINOMEscan competition binding. The conditions noted are these: compound 10.0 µM.
A further assay concerns the target GAK (human) (UniProt O14976). Briefly: KINOMEscan competition binding. Conditions: compound 10.0 µM.
The next assay addresses RPS6KA2 KD2 (human) (UniProt Q15349). In words: KINOMEscan competition binding. Conditions: compound 10.0 µM.
Assay [1] concerns the target TTK (human) (UniProt P33981). Briefly: KINOMEscan competition binding. The conditions noted are these: for kinase still bound, per cent of control: compound 10.0 µM.
A further assay concerns the target PLK3 (human) (UniProt Q9H4B4). In words: KINOMEscan competition binding. The conditions noted are these: compound 10.0 µM.
The target in another assay is STK33 (human) (UniProt Q9BYT3). Briefly: KINOMEscan competition binding. The conditions noted are these: compound 10.0 µM.
The target in the next assay is PTK2 (human) (UniProt Q05397). In words: KINOMEscan competition binding. The conditions noted are these: compound 10.0 µM.
For another assay, the target named is PLK4 (human) (UniProt O00444). Briefly: KINOMEscan competition binding. The conditions noted are these: compound 10.0 µM.
Chain of PLK4 (human) (O00444 whole entry, looked up): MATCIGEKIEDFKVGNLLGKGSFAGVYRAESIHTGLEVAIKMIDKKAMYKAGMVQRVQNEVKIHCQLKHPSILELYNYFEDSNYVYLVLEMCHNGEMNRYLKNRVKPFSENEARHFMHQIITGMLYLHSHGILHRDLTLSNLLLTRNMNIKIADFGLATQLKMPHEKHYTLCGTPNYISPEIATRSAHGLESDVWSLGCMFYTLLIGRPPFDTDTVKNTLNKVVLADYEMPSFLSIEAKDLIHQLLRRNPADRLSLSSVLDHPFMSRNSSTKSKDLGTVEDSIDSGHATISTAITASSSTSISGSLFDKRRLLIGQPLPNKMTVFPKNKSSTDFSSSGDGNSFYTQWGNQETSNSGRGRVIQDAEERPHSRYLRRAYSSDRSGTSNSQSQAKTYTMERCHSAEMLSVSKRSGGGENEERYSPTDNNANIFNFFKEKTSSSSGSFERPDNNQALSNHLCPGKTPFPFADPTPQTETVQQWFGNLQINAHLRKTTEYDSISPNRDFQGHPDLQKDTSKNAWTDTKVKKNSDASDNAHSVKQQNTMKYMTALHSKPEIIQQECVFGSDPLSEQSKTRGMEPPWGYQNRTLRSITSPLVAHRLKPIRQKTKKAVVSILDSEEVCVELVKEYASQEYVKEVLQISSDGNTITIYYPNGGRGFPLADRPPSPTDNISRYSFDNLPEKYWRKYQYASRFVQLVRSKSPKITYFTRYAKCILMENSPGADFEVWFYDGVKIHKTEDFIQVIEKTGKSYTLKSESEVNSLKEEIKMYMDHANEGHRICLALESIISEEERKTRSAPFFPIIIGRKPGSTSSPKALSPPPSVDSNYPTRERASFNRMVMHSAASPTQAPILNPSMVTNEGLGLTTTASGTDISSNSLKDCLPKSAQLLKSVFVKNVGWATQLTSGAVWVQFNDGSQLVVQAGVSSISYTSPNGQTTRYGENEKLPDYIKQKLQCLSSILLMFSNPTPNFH
Assay [2] deals with TTK (human) (UniProt P33981). In words: SelectScreen, TR FRET.
Chain of TTK (human) (P33981 whole entry, looked up): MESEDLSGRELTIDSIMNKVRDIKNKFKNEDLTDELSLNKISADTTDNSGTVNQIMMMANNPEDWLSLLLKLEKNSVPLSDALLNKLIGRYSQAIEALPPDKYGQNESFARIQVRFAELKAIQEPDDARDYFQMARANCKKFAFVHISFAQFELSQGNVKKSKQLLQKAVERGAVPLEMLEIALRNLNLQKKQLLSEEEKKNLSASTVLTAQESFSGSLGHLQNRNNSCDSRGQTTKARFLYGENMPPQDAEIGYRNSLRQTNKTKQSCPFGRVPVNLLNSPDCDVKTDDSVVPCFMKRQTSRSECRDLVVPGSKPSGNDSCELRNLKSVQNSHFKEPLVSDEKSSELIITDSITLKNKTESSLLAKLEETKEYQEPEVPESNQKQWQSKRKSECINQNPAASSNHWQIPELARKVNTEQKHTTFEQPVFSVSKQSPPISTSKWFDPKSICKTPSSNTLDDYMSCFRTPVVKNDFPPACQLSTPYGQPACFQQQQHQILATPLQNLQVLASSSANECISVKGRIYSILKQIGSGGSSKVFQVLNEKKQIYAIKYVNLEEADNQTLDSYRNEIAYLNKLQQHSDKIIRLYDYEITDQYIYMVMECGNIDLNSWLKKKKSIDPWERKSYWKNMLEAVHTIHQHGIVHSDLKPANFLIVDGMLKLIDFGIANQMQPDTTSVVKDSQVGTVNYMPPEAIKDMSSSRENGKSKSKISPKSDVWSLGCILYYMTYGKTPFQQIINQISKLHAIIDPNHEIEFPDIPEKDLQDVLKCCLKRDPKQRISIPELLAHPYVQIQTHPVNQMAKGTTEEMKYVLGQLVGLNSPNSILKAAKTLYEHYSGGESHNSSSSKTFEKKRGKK
A further assay addresses PIK3CG (human) (UniProt P48736). Briefly: KINOMEscan competition binding. The conditions noted are these: compound 10.0 µM.
For the next assay, the target named is MAPK12 (human) (UniProt P53778). Briefly: KINOMEscan competition binding. The conditions noted are these: compound 10.0 µM.
For another assay, the target named is DAPK2 (human) (UniProt Q9UIK4). In words: KINOMEscan competition binding. Conditions: compound 10.0 µM.
Another assay concerns the target PIK3C2B (human) (UniProt O00750). In words: KINOMEscan competition binding. The conditions noted are these: compound 10.0 µM.
For another assay, the target named is MAP2K3 (human) (UniProt P46734). Briefly: KINOMEscan competition binding. The conditions noted are these: compound 10.0 µM.
Chain of MAP2K3 (human) (P46734 whole entry, looked up): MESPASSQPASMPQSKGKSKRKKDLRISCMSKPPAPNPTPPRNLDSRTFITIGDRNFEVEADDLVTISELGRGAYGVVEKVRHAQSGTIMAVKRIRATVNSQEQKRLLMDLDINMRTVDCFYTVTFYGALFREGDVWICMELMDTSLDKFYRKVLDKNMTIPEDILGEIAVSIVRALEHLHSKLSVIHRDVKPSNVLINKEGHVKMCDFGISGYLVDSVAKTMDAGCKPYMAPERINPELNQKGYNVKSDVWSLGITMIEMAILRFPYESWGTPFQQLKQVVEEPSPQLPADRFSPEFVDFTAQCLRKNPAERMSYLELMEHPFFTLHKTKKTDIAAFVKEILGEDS
The target in a further assay is TAOK1 (human) (UniProt Q7L7X3). Briefly: KINOMEscan competition binding. The conditions noted are these: compound 10.0 µM.
The target in the next assay is LATS2 (human) (UniProt Q9NRM7). Briefly: KINOMEscan competition binding. Conditions: compound 10.0 µM.
A further assay concerns the target MINK1 (human) (UniProt Q8N4C8). In words: KINOMEscan competition binding. The conditions noted are these: compound 10.0 µM.
The target of another assay is CSNK2A1 (human) (UniProt P68400). In words: KINOMEscan competition binding. Conditions: compound 10.0 µM.
In assay [3] the target is PIM1 (human) (UniProt P11309). In words: KINOMEscan competition binding. Conditions: compound 10.0 µM.
Chain of PIM1 (human) (P11309 whole entry, looked up): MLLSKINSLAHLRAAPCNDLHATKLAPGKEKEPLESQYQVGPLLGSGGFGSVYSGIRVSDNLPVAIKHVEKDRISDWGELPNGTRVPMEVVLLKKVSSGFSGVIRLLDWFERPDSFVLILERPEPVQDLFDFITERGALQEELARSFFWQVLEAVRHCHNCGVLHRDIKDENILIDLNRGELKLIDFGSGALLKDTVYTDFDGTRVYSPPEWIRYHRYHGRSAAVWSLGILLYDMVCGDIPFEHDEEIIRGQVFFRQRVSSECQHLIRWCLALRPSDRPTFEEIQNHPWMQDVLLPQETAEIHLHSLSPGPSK
The target of another assay is PIK3CA (human) (UniProt P42336). Briefly: KINOMEscan competition binding. The conditions noted are these: compound 10.0 µM.
For assay [4], the target named is PIM2 (human) (UniProt Q9P1W9). Briefly: KINOMEscan competition binding. Conditions: compound 10.0 µM.
Chain of PIM2 (human) (Q9P1W9 whole entry, looked up): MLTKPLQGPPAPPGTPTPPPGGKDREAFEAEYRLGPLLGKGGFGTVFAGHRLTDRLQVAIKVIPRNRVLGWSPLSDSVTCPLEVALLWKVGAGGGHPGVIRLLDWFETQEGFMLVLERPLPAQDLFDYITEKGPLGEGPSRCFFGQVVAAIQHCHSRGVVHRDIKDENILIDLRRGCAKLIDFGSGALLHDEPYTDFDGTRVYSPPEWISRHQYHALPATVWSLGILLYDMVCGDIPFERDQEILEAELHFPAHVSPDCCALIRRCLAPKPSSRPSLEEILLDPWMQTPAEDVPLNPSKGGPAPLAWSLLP
Assay [5] deals with PIK3CA (human), P42336 [E545K]. Briefly: KINOMEscan competition binding. Conditions: compound 10.0 µM.
Another assay addresses CSNK2A2 (human) (UniProt P19784). Briefly: KINOMEscan competition binding. The conditions noted are these: compound 10.0 µM.
A further assay deals with HIPK1 (human) (UniProt Q86Z02). In words: KINOMEscan competition binding. Conditions: compound 10.0 µM.
A further assay deals with DAPK3 (human) (UniProt O43293). In words: KINOMEscan competition binding. The conditions noted are these: compound 10.0 µM.
The next assay addresses AAK1 (human) (UniProt Q2M2I8). Briefly: KINOMEscan competition binding. Conditions: compound 10.0 µM.
A further assay deals with DAPK1 (human) (UniProt P53355). Briefly: KINOMEscan competition binding. The conditions noted are these: compound 10.0 µM.
The target of a further assay is STK17B (human) (UniProt O94768). In words: KINOMEscan competition binding. Conditions: compound 10.0 µM.
A further assay concerns the target PIK3CB (human) (UniProt P42338). Briefly: KINOMEscan competition binding. The conditions noted are these: compound 10.0 µM.
The target in a further assay is PIM3 (human) (UniProt Q86V86). In words: KINOMEscan competition binding. Conditions: compound 10.0 µM.
The next assay addresses PIK3CD (human) (UniProt O00329). Briefly: KINOMEscan competition binding. The conditions noted are these: compound 10.0 µM.
For a further assay, the target named is CDK16 (human) (UniProt Q00536). Briefly: KINOMEscan competition binding. Conditions: compound 10.0 µM.
A further assay has as its target BTK (human) (UniProt Q06187). Briefly: KINOMEscan competition binding. The conditions noted are these: compound 10.0 µM.
In another assay the target is CDK7 (human) (UniProt P50613). In words: KINOMEscan competition binding. The conditions noted are these: compound 10.0 µM.
Assay [6] has as its target PIM1 (human) (UniProt P11309). Briefly: SelectScreen, TR FRET. A general note: TR-FRET usually uses a lanthanide donor and a delayed reading to cut background.
For assay [7], the target named is PIM2 (human) (UniProt Q9P1W9). In words: SelectScreen, TR FRET.
Another assay deals with MAP4K4 (human) (UniProt O95819). In words: KINOMEscan competition binding. Conditions: compound 10.0 µM.

Chain of PIK3CB (human) (P42338 whole entry, looked up): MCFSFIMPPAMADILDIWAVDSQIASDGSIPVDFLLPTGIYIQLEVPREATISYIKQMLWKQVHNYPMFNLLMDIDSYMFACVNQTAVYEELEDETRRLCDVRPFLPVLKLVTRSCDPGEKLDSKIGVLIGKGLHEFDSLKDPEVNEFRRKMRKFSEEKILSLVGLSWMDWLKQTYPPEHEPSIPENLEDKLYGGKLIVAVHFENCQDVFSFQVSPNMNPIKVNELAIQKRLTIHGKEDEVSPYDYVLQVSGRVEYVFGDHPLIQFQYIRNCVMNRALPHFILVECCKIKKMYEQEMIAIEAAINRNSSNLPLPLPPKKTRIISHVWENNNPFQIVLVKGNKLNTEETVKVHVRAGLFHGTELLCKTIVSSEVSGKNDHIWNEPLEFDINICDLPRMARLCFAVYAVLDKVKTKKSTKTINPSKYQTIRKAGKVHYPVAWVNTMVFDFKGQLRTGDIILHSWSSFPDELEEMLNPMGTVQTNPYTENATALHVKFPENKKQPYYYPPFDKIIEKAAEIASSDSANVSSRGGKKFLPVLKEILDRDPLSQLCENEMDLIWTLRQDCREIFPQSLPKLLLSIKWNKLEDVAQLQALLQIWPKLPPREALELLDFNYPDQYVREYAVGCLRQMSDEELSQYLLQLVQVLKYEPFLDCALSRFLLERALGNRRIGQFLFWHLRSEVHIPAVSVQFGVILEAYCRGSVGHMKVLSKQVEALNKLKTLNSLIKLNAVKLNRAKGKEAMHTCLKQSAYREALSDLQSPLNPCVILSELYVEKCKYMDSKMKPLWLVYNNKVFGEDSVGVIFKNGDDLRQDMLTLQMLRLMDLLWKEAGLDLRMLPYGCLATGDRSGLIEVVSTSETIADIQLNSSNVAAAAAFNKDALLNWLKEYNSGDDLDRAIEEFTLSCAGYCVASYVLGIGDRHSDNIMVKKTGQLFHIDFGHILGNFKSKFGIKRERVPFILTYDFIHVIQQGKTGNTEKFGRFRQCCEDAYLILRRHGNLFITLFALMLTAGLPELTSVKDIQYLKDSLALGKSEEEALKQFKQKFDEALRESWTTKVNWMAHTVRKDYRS

In the case of `CCN(CC)C1CCN(c2ccc(Nc3ncc4c(n3)N3CCCC3C=CN4C)c(OC(C)C)c2)CC1` (centres undefined), the kinase still bound, per cent of control was found to be 4.4% at PLK1 (human); 25% at MYLK (human); 1.9% on RPS6KA4 KD2 (human); 0% at RAF1 (human); 27% on GAK (human); 32% on RPS6KA2 KD2 (human). For the same molecule, the kinase still bound, per cent of control on TTK (human) [1] was 7.4%; on PLK3 (human) it was 5.8%.
As to `COc1cc(N(C)CCO)ccc1Nc1ncc2c(n1)N(C1CCCC1)CCC(=O)N2C`, the kinase still bound, per cent of control at PLK1 (human) amounted to 7.4%; on RAF1 (human), 0%; at GAK (human), 2.4%; at STK33 (human), 17%; on PTK2 (human), 17%; at TTK (human) [1], 2.2%. The kinase still bound, per cent of control at PLK4 (human) was determined as 14%; at PLK3 (human) it was 0%. The molecule also returned a Kd on TTK (human) [1] of 157 nM. The molecule further gave an IC50 against TTK (human) [2] of 1370 nM.
Regarding `NS(=O)(=O)c1ccc(-c2ccc(/C=C3\SC(=O)NC3=O)o2)cc1`, the kinase still bound, per cent of control at PIK3CG (human) amounted to 3.6%; on MAPK12 (human) it was 28%; on DAPK2 (human), 6.4%; on PIK3C2B (human), 18%; on MAP2K3 (human) it was 34%; on TAOK1 (human), 9.6%. Also, the kinase still bound, per cent of control was 8.1% at LATS2 (human); 1.8% at MINK1 (human); 18% on CSNK2A1 (human); 4% at PIM1 (human) [3]; 9.9% at RPS6KA4 KD2 (human); 15% at PIK3CA (human). Further, the kinase still bound, per cent of control at PIM2 (human) [4] came out at 0.9%; in [5], 20%; on CSNK2A2 (human) it was 7.9%; on HIPK1 (human), 2.4%; on DAPK3 (human) it was 11%; on AAK1 (human), 34%. Also, the kinase still bound, per cent of control turned out to be 6% at DAPK1 (human); 9% at STK17B (human); 31% at PIK3CB (human); 4.9% on PIM3 (human); 32% on PIK3CD (human); 19% on CDK16 (human). Further, the kinase still bound, per cent of control at BTK (human) is 30%; on PLK4 (human), 21%; on CDK7 (human) it was 27%. Further, the results for the IC50 on PIM1 (human) [6] and against PIM2 (human) [7] were 215 nM and 125 nM, respectively.
For `CS(=O)C1=NC(=O)/C(=C/c2ccc(-c3ccc(S(N)(=O)=O)cc3)o2)S1` (centres undefined), the kinase still bound, per cent of control on PIK3CG (human) worked out at 10%; at DAPK2 (human), 3.4%; on MAP2K3 (human), 33%; at TAOK1 (human), 12%; on LATS2 (human), 21%; on MINK1 (human) it was 32%. For the same molecule, the kinase still bound, per cent of control turned out to be 15% at CSNK2A1 (human); 18% on MAP4K4 (human); 2.4% on PIM1 (human) [3]; 18% at RPS6KA4 KD2 (human); 12% on PIK3CA (human); 3.3% at PIM2 (human) [4]. Moreover, the kinase still bound, per cent of control in [5] was 17%; at CSNK2A2 (human), 21%; at HIPK1 (human), 3.4%; on DAPK3 (human) it was 8%; at DAPK1 (human), 2.3%; at STK17B (human) it was 5.2%. Also, the kinase still bound, per cent of control on PIK3CB (human) was determined as 31%; on PIM3 (human) it was 2.8%; on PIK3CD (human) it was 30%; on CDK16 (human), 9.3%; at BTK (human), 17%; on PLK4 (human) it was 4.7%. Besides, the kinase still bound, per cent of control at CDK7 (human) amounted to 29%. The IC50 is 293 nM on PIM1 (human) [6] and 165 nM on PIM2 (human) [7].
